{"source": "patent US4390528A", "about": "“Tuftsinyl-tuftsin” (Research Corporation, priority 1981, dated 1983)", "key": {"[1]": {"system": "blood polymorphonuclear leucocytes", "conditions": "especially neutrophilic leucocytes, in mammals, known for some time; cited from earlier work"}, "[2]": {"system": "Cloudman S-91 mouse melanoma cells", "test": "Antineoplastic activity against Cloudman S-91 mouse melanoma cells"}, "L1210 cells": {"system": "L1210 cells", "test": "Survival of DBA/2 mice injected intraperitoneally with L1210 cells", "format": "in vivo, mouse", "conditions": "25 DBA/2 mice, 20 μg intraperitoneally on days -7, -4 and 0; L1210 cells i.p. on day 0; control animals all dead by day 18", "method": "In one experiment, 25 DBA/2 mice were injected each with 20 μg of the octapeptide intraperitoneally on days -7, -4 and 0. On the last mentioned day, L1210 cells were also injected intraperitoneally in experimental animals and solvent buffer alone in 25 control mice. The animals were observed daily and deaths recorded. The control animals were all dead by day 18, whereas the treated mice survived 32 days."}, "[3]": {"system": "L1210 mouse leukemia cells", "test": "Antineoplastic activity against L1210 mouse leukemia cells"}, "[4]": {"system": "blood polymorphonuclear leucocytes", "test": "Stimulation of phagocytosis and pinocytosis", "format": "cell-based, mammals", "from_the_text": "It also stimulates pinocytosis to the same extent allowing the cells to obtain nourishment from the surrounding medium."}, "316 mouse melanoma cells": {"system": "316 mouse melanoma cells", "test": "Antineoplastic activity against 316 mouse melanoma cells"}, "[5]": {"system": "therapeutic action of tuftsin", "test": "Inhibition of the therapeutic action of tuftsin", "conditions": "tripeptide formed by degradation of administered tuftsin", "method": "Thus, if large amounts of tuftsin are administered, for example, parenterally a rather complex series of reactions takes place. One is the desired therapeutically useful reaction, another is the formation of the inhibitory tripeptide and the third is the inhibitory reaction. The rate of the last two reactions is, unfortunately, so high that the administration of higher doses of the therapeutic agent is counterproductive. As more is administered, more of the inhibitory tripeptide is produced and less of the tuftsin is available to fulfill its therapeutic purpose."}}, "note": "Where a SMILES comes first, the peptide text is derived from it. Where no end group is shown, it is not given here.", "data": [{"molecule": "L-threonyl-L-lysyl-L-propyl-L-arginine [tuftsin]", "values": [{"measurement": "stimulation of phagocytosis and destruction of bacteria by leucocytes", "setting": "[1]", "result": "has the ability to stimulate phagocytosis"}]}, {"molecule": "TKPRTKPR [Tuftsinyl-tuftsin, L-Threonyl-L-Lysyl-L-Prolyl-L-Arginyl-L-Threonyl-L-Lysyl-L-Prolyl-L-Arginine]", "values": [{"measurement": "antineoplastic activity", "setting": "[2]", "result": "manifests antineoplastic activity"}, {"measurement": "survival of treated mice", "setting": "L1210 cells", "result": 32, "unit": "days"}, {"measurement": "antineoplastic activity", "setting": "[3]", "result": "manifests antineoplastic activity"}, {"measurement": "stimulation of phagocytosis and pinocytosis", "setting": "[4]", "result": "stimulator of phagocytosis and pinocytosis"}, {"measurement": "antineoplastic activity", "setting": "316 mouse melanoma cells", "result": "manifests antineoplastic activity"}]}, {"molecule": "N=C(N)NCCC[C@H](NC(=O)[C@@H]1CCCN1C(=O)[C@@H](N)CCCCN)C(=O)O", "note": "[lysyl-prolyl-arginine] (H-Lys-Pro-Arg-OH)", "values": [{"measurement": "effect on the therapeutic action of tuftsin", "setting": "[5]", "result": "acts as an inhibitor"}]}]}
